# Measurements taken from patent US20230085307A1, “PYRIDAZINONE COMPOUND AND HERBICIDE” (NISSAN CHEMICAL CORPORATION, priority 2019, published 2023).
# System: velvetleaf
# Test: Test Example 5: herbicidal effect by foliage application, plastic box (Table 20, symbol M)
# Format: in vivo, velvetleaf (Abutilon theophrasti)
# Conditions: foliage application, 320 g/ha, evaluated three weeks after application
# Procedure, shortened: (§1)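 Sow seeds spot-wise in sterilized diluvial soil; cover with ~1.5 cm soil. Grow 14 days in greenhouse, 25° C. to 30° C. Spray foliage with emulsion diluted to predetermined amount. Rate effect after 3 weeks.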
row,Compound,herbicidal effect on M: velvetleaf (criteria 0-5)
1,Cc1nn(C)c(=O)c(-c2c(-c3ccc(C(F)F)cc3)sc3ccc(F)cc23)c1O [2-227],5 (Herbicidal rate of 90% or more (almost completely withered))
2,CCCSc1ccc(-c2sc3ccc(F)cc3c2-c2c(OC(=O)CCC)c(C)nn(C)c2=O)cc1 [2-249],5 (Herbicidal rate of 90% or more (almost completely withered))

# System: oval-leafed pondweed
# Test: Test Example 1: herbicidal activity, application before weed generation under submerged conditions (Table 16, symbol C)
# Format: in vivo, oval-leafed pondweed (Monochoria vaginalis)
# Conditions: 320 g/ha applied herbicide
# Procedure, shortened: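 Submerged Wagner pots (alluvial soil, 4 cm water) sown with weed seeds and planted with 2.5-leaf rice seedlings; emulsifiable concentrate diluted in water applied to water surface on sowing day. Held in greenhouse at 25-30 °C; injury scored 0-5 by herbicidal rate after three weeks.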
row,Compound,Herbicidal effect on C: oval-leafed pondweed (grade 0-5)
1,Cc1nn(C)c(=O)c(-c2c(-c3ccc(C(F)F)cc3)sc3ccc(F)cc23)c1O [2-227],0 (Herbicidal rate of 5% or less (almost no effect))
2,CCCSc1ccc(-c2sc3ccc(F)cc3c2-c2c(OC(=O)CCC)c(C)nn(C)c2=O)cc1 [2-249],0 (Herbicidal rate of 5% or less (almost no effect))

# System: lambsquarters
# Test: Test Example 4: herbicidal effect by soil treatment (Table 19, symbol O)
# Format: in vivo, lambsquarters (Chenopodium album)
# Conditions: amount of applied herbicide 320 g/ha
# Procedure, shortened: (§2)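 Applied as a water-diluted emulsion, the compound was sprayed onto soil covering newly sown seeds. Evaluation came three weeks after application, in a greenhouse held at 25° C. to 30° C.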
row,Compound,herbicidal effect on O: lambsquarters
1,Cc1nn(C)c(=O)c(-c2c(-c3ccc(C(F)F)cc3)sc3ccc(F)cc23)c1O [2-227],5 (Herbicidal rate of 90% or more (almost completely withered))
2,CCCSc1ccc(-c2sc3ccc(F)cc3c2-c2c(OC(=O)CCC)c(C)nn(C)c2=O)cc1 [2-249],3 (Herbicidal rate of 40% or more and less than 70%)

# System: blackgrass
# Test: Test Example 4: herbicidal effect by soil treatment (Table 19, symbol J)
# Format: in vivo, blackgrass (Alopecurus myosuroides)
# Conditions: amount of applied herbicide 320 g/ha
# Procedure, shortened: as §2
row,Compound,herbicidal effect on J: blackgrass
1,Cc1nn(C)c(=O)c(-c2c(-c3ccc(C(F)F)cc3)sc3ccc(F)cc23)c1O [2-227],1 (Herbicidal rate of 5% or more and less than 20%)
2,CCCSc1ccc(-c2sc3ccc(F)cc3c2-c2c(OC(=O)CCC)c(C)nn(C)c2=O)cc1 [2-249],0 (Herbicidal rate of 5% or less (almost no effect))

# System: chickweed
# Test: Test Example 4: herbicidal effect by soil treatment (Table 19, symbol P)
# Format: in vivo, common chickweed (Stellaria media)
# Conditions: amount of applied herbicide 320 g/ha
# Procedure, shortened: as §2
row,Compound,herbicidal effect on P: chickweed
1,Cc1nn(C)c(=O)c(-c2c(-c3ccc(C(F)F)cc3)sc3ccc(F)cc23)c1O [2-227],5 (Herbicidal rate of 90% or more (almost completely withered))
2,CCCSc1ccc(-c2sc3ccc(F)cc3c2-c2c(OC(=O)CCC)c(C)nn(C)c2=O)cc1 [2-249],0 (Herbicidal rate of 5% or less (almost no effect))

# System: velvetleaf
# Test: Test Example 4: herbicidal effect by soil treatment (Table 19, symbol M)
# Format: in vivo, velvetleaf (Abutilon theophrasti)
# Conditions: amount of applied herbicide 320 g/ha
# Procedure, shortened: as §2
row,Compound,herbicidal effect on M: velvetleaf
1,Cc1nn(C)c(=O)c(-c2c(-c3ccc(C(F)F)cc3)sc3ccc(F)cc23)c1O [2-227],5 (Herbicidal rate of 90% or more (almost completely withered))
2,CCCSc1ccc(-c2sc3ccc(F)cc3c2-c2c(OC(=O)CCC)c(C)nn(C)c2=O)cc1 [2-249],1 (Herbicidal rate of 5% or more and less than 20%)

# System: Japanese bulrush
# Test: Test Example 2: herbicidal activity, application during weed generation under submerged conditions (Table 17, symbol B)
# Format: in vivo, Japanese bulrush (Schoenoplectus juncoides)
# Conditions: AAH 320 g/ha; application during weed generation, submerged conditions
# Procedure, shortened: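 In this pot test, flooded alluvial soil (water depth 4 cm) holds all three species sown as a mixture. Once seedlings have one to two leaves, the compound's emulsion, thinned with water to the intended dose, is poured on the water; grading follows after three weeks on the earlier criteria.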
row,Compound,"herbicidal effect rating, B: Japanese bulrush"
1,Cc1nn(C)c(=O)c(-c2c(-c3ccc(C(F)F)cc3)sc3ccc(F)cc23)c1O [2-227],2 (Herbicidal rate of 20% or more and less than 40%)
2,CCCSc1ccc(-c2sc3ccc(F)cc3c2-c2c(OC(=O)CCC)c(C)nn(C)c2=O)cc1 [2-249],0 (Herbicidal rate of 5% or less (almost no effect))

# System: green foxtail
# Test: Test Example 4: herbicidal effect by soil treatment (Table 19, symbol G)
# Format: in vivo, green foxtail (Setaria viridis)
# Conditions: amount of applied herbicide 320 g/ha
# Procedure, shortened: as §2
row,Compound,herbicidal effect on G: green foxtail
1,Cc1nn(C)c(=O)c(-c2c(-c3ccc(C(F)F)cc3)sc3ccc(F)cc23)c1O [2-227],4 (Herbicidal rate of 70% or more and less than 90%)
2,CCCSc1ccc(-c2sc3ccc(F)cc3c2-c2c(OC(=O)CCC)c(C)nn(C)c2=O)cc1 [2-249],4 (Herbicidal rate of 70% or more and less than 90%)

# System: southern crabgrass
# Test: Test Example 5: herbicidal effect by foliage application, plastic box (Table 20, symbol F)
# Format: in vivo, southern crabgrass (Digitaria ciliaris)
# Conditions: foliage application, 320 g/ha, evaluated three weeks after application
# Procedure, shortened: as §1
row,Compound,herbicidal effect on F: southern crabgrass (criteria 0-5)
1,Cc1nn(C)c(=O)c(-c2c(-c3ccc(C(F)F)cc3)sc3ccc(F)cc23)c1O [2-227],5 (Herbicidal rate of 90% or more (almost completely withered))
2,CCCSc1ccc(-c2sc3ccc(F)cc3c2-c2c(OC(=O)CCC)c(C)nn(C)c2=O)cc1 [2-249],5 (Herbicidal rate of 90% or more (almost completely withered))

# System: barnyard grass
# Test: Test Example 4: herbicidal effect by soil treatment (Table 19, symbol H)
# Format: in vivo, barnyard grass (Echinochloa crus-galli)
# Conditions: amount of applied herbicide 320 g/ha
# Procedure, shortened: as §2
row,Compound,herbicidal effect on H: barnyard grass
1,Cc1nn(C)c(=O)c(-c2c(-c3ccc(C(F)F)cc3)sc3ccc(F)cc23)c1O [2-227],5 (Herbicidal rate of 90% or more (almost completely withered))
2,CCCSc1ccc(-c2sc3ccc(F)cc3c2-c2c(OC(=O)CCC)c(C)nn(C)c2=O)cc1 [2-249],4 (Herbicidal rate of 70% or more and less than 90%)

# System: persian speedwell
# Test: Test Example 4: herbicidal effect by soil treatment (Table 19, symbol R)
# Format: in vivo, Persian speedwell (Veronica persica)
# Conditions: amount of applied herbicide 320 g/ha
# Procedure, shortened: as §2
row,Compound,herbicidal effect on R: persian speedwell
1,Cc1nn(C)c(=O)c(-c2c(-c3ccc(C(F)F)cc3)sc3ccc(F)cc23)c1O [2-227],4 (Herbicidal rate of 70% or more and less than 90%)
2,CCCSc1ccc(-c2sc3ccc(F)cc3c2-c2c(OC(=O)CCC)c(C)nn(C)c2=O)cc1 [2-249],4 (Herbicidal rate of 70% or more and less than 90%)

# System: chickweed
# Test: Test Example 5: herbicidal effect by foliage application, plastic box (Table 20, symbol P)
# Format: in vivo, common chickweed (Stellaria media)
# Conditions: foliage application, 320 g/ha, evaluated three weeks after application
# Procedure, shortened: as §1
row,Compound,herbicidal effect on P: chickweed (criteria 0-5)
1,Cc1nn(C)c(=O)c(-c2c(-c3ccc(C(F)F)cc3)sc3ccc(F)cc23)c1O [2-227],5 (Herbicidal rate of 90% or more (almost completely withered))
2,CCCSc1ccc(-c2sc3ccc(F)cc3c2-c2c(OC(=O)CCC)c(C)nn(C)c2=O)cc1 [2-249],5 (Herbicidal rate of 90% or more (almost completely withered))

# System: lambsquarters
# Test: Test Example 5: herbicidal effect by foliage application, plastic box (Table 20, symbol O)
# Format: in vivo, lambsquarters (Chenopodium album)
# Conditions: foliage application, 320 g/ha, evaluated three weeks after application
# Procedure, shortened: as §1
row,Compound,herbicidal effect on O: lambsquarters (criteria 0-5)
1,Cc1nn(C)c(=O)c(-c2c(-c3ccc(C(F)F)cc3)sc3ccc(F)cc23)c1O [2-227],5 (Herbicidal rate of 90% or more (almost completely withered))
2,CCCSc1ccc(-c2sc3ccc(F)cc3c2-c2c(OC(=O)CCC)c(C)nn(C)c2=O)cc1 [2-249],4 (Herbicidal rate of 70% or more and less than 90%)

# System: persian speedwell
# Test: Test Example 5: herbicidal effect by foliage application, plastic box (Table 20, symbol R)
# Format: in vivo, Persian speedwell (Veronica persica)
# Conditions: foliage application, 320 g/ha, evaluated three weeks after application
# Procedure, shortened: as §1
row,Compound,herbicidal effect on R: persian speedwell (criteria 0-5)
1,Cc1nn(C)c(=O)c(-c2c(-c3ccc(C(F)F)cc3)sc3ccc(F)cc23)c1O [2-227],5 (Herbicidal rate of 90% or more (almost completely withered))
2,CCCSc1ccc(-c2sc3ccc(F)cc3c2-c2c(OC(=O)CCC)c(C)nn(C)c2=O)cc1 [2-249],5 (Herbicidal rate of 90% or more (almost completely withered))

# System: windgrass
# Test: Test Example 5: herbicidal effect by foliage application, plastic box (Table 20, symbol L)
# Format: in vivo, windgrass (Apera spica-venti)
# Conditions: foliage application, 320 g/ha, evaluated three weeks after application
# Procedure, shortened: as §1
row,Compound,herbicidal effect on L: windgrass (criteria 0-5)
1,Cc1nn(C)c(=O)c(-c2c(-c3ccc(C(F)F)cc3)sc3ccc(F)cc23)c1O [2-227],0 (Herbicidal rate of 5% or less (almost no effect))
2,CCCSc1ccc(-c2sc3ccc(F)cc3c2-c2c(OC(=O)CCC)c(C)nn(C)c2=O)cc1 [2-249],4 (Herbicidal rate of 70% or more and less than 90%)

# System: wild oat
# Test: Test Example 4: herbicidal effect by soil treatment (Table 19, symbol I)
# Format: in vivo, wild oat (Avena fatua)
# Conditions: amount of applied herbicide 320 g/ha
# Procedure, shortened: as §2
row,Compound,herbicidal effect on I: wild oat
1,Cc1nn(C)c(=O)c(-c2c(-c3ccc(C(F)F)cc3)sc3ccc(F)cc23)c1O [2-227],0 (Herbicidal rate of 5% or less (almost no effect))
2,CCCSc1ccc(-c2sc3ccc(F)cc3c2-c2c(OC(=O)CCC)c(C)nn(C)c2=O)cc1 [2-249],0 (Herbicidal rate of 5% or less (almost no effect))

# System: southern crabgrass
# Test: Test Example 4: herbicidal effect by soil treatment (Table 19, symbol F)
# Format: in vivo, southern crabgrass (Digitaria ciliaris)
# Conditions: amount of applied herbicide 320 g/ha
# Procedure, shortened: as §2
row,Compound,herbicidal effect on F: southern crabgrass
1,Cc1nn(C)c(=O)c(-c2c(-c3ccc(C(F)F)cc3)sc3ccc(F)cc23)c1O [2-227],5 (Herbicidal rate of 90% or more (almost completely withered))
2,CCCSc1ccc(-c2sc3ccc(F)cc3c2-c2c(OC(=O)CCC)c(C)nn(C)c2=O)cc1 [2-249],3 (Herbicidal rate of 40% or more and less than 70%)
